# Reference: patent publication US12167990B2, “Vitamin composition” (SOCIÉTË DES PRODUITS NESTLË S.A., priority 2016, dated 2024)
# Experiment: Storage test at 60° C. and 68% relative humidity, vitamin A analysed by UPLC
# Assay type: physicochemical
# Details: storage at 60° C. and 68% RH; 0.825 wt. % vitamin A palmitate in oil; FIGS. 1 to 7
# Method: Palm oil (SUNIA), and vitamin A palmitate (Vitamin A Palmitate 1.7 MIU/g-DSM) were heated in an oven at 60°. Vitamin A palmitate was not held above 60° C. for longer than 5 minutes to avoid possible degradation. The oil was mixed with vitamin A palmitate in a 0.5 liter Schott bottle and then stirred for 10 minutes in a 50° C. water bath. Initial vitamin A palmitate content was 0.825% in oil (a vitamin A palmitate content of 0.165 wt. % in powdered bran). The total amount of lipid was 100 g. A quantity of 10 g of lipid containing vitamin A palmitate was then mixed with 40 g of powdered rice bran with or without phytic acid (Herba Ingredients) in a mortar during 5 minutes. […]
# A quantity of 10 g of lipid containing 0.825 wt. % of vitamin A palmitate was mixed with 40 g of wheat bran in a mortar during 5 minutes. […]
# A quantity of 10 g of lipid containing 0.825 wt. % of vitamin A palmitate was mixed with 40 g of maltodextrin DE21 in a mortar during 5 minutes. […]
# A quantity of 10 g of lipid containing 0.825 wt. % of vitamin A palmitate and 1.87 g of iron pyrophosphate powder were mixed with 38.13 g of powdered rice bran (Herba Ingredients) in a mortar during 5 minutes. […]
# For the storage tests, the crystallizing dishes were transferred into a climatic chamber regulated at 60° C. and 68% relative humidity, before being analyzed. […]
smiles,measurement,value
"CCCCCCCCCCCCCCCC(=O)OC/C=C(C)/C=C/C=C(C)/C=C/C1=C(C)CCCC1(C)C [vitamin A palmitate, retinyl palmitate]",vitamin A stability (degradation curves),very sensitive to temperature and degrades fast
